We go through one compound from ChEMBL document CHEMBL3045251, “Ethephon elicits protection against Erysiphe necator in grapevine” (2008).

The source made the active and inactive calls. The rule behind the calls is not given here.

The subject of test [1] is Vitis vinifera. As to the kind of experiment: Induction of delta-viniferin accumulation in Vitis vinifera cv. Cabernet Sauvignon foliar cuttings assessed per dry weight of plant at 0.5 g/L measured after 24 hr post dose by fluorimetry. The format is functional.
Test [2] concerns Vitis vinifera. As to the kind of experiment: Induction of trans-resveratrol accumulation in Vitis vinifera cv. Cabernet Sauvignon foliar cuttings assessed per dry weight of plant at 0.5 g/L measured after 24 to 72 hr post dose by fluorimetry. The test is classed as functional.
Test [3] relates to Vitis vinifera. As to the kind of experiment: Increase in […] class IV chitinase gene expression in Vitis vinifera cv. Cabernet Sauvignon foliar cuttings at 0.5 g/L measured after 6 hr post dose by RTq-PCR method relative to untreated control. The format is functional.
Test [4] relates to Vitis vinifera. Description: Induction of pterostilbene accumulation in Vitis vinifera cv. Cabernet Sauvignon foliar cuttings assessed per dry weight of plant at 0.5 g/L measured after 24 to 72 hr post dose by fluorimetry. The test is classed as functional.
The subject of test [5] is Erysiphe necator. Description: Fungicidal activity against Erysiphe necator infected 72 hr compound pre-treated grapevine leaf disks assessed as reduction in fungal colonization measured 14 days post fungal inoculation. The format is functional. More on the design: scale not given: the % may be the effect or the level left.
Test [6] deals with Vitis vinifera. As to the kind of experiment: Increase in beta-1,3- glucanase gene expression in Vitis vinifera cv. Cabernet Sauvignon foliar cuttings at 0.5 g/L measured after 12 to 24 hr post dose by RTq-PCR method relative to untreated control. The test is classed as functional.
For test [7], the system named is Vitis vinifera. Description: Increase in […] protease inhibitor gene expression in Vitis vinifera cv. Cabernet Sauvignon foliar cuttings at 0.5 g/L measured after 12 to 72 hr post dose by RTq-PCR method relative to untreated control. The format is functional.
The test system of test [8] is Erysiphe necator. As to the kind of experiment: Fungicidal activity against Erysiphe necator infected 72 hr compound pre-treated grapevine foliar cuttings assessed as reduction in powdery mildew infection measured 14 days post fungal inoculation. The test is classed as functional. On the set-up: scale not given: the % may be the effect or the level left.
Test [9] deals with Vitis vinifera. As to the kind of experiment: Induction of trans-piceid accumulation in Vitis vinifera cv. Cabernet Sauvignon foliar cuttings assessed per dry weight of plant at 0.5 g/L measured after 72 hr post dose by fluorimetry. The test is classed as functional.
Test [10] deals with Vitis vinifera. Description: Induction of epsilon-viniferin accumulation in Vitis vinifera cv. Cabernet Sauvignon foliar cuttings assessed per dry weight of plant at 0.5 g/L measured after 24 hr post dose by fluorimetry. The format is functional.
Test [11] has as its system Vitis vinifera. Description: Induction of trans-stilbenes in Vitis vinifera cv. Cabernet Sauvignon foliar cuttings at 0.5 g/L measured after 20 to 80 hr post dose by fluorimetry. The format is functional, organism-based.
The test system of test [12] is Vitis vinifera. As to the kind of experiment: Induction of delta-viniferin accumulation in Vitis vinifera cv. Cabernet Sauvignon foliar cuttings assessed per dry weight of plant at 0.5 g/L measured after 72 hr post dose by fluorimetry. The test is classed as functional.
The test system of test [13] is Vitis vinifera. Description: Increase in polygalacturonase-inhibiting protein gene expression in Vitis vinifera cv. Cabernet Sauvignon foliar cuttings at 0.5 g/L measured after 12 to 24 hr post dose by RTq-PCR method relative to untreated control. The test is classed as functional.
The subject of test [14] is Vitis vinifera. Description: Increase in phenylalanine ammonia lyase gene expression in Vitis vinifera cv. Cabernet Sauvignon foliar cuttings at 0.5 g/L measured after 6 hr post dose by RTq-PCR method relative to untreated control. The test is classed as functional.
The subject of test [15] is Vitis vinifera. Description: Increase in phenylalanine stilbene synthase gene expression in Vitis vinifera cv. Cabernet Sauvignon foliar cuttings at 0.5 g/L measured after 6 hr post dose by RTq-PCR method relative to untreated control. The test is classed as functional.

Take `O=P(O)(O)CCCl` [ETHEPHON]: the Activity is recorded as 12 nmol/g with Vitis vinifera [1]; 133 nmol/g with Vitis vinifera [2]; 10 nmol/g in the test on Vitis vinifera [4]; 64% with Erysiphe necator [5]; 70% in the test with Erysiphe necator [8]; 312 nmol/g with Vitis vinifera [9]. For the same compound, the Activity was 58 nmol/g with Vitis vinifera [10] and 6 nmol/g in the test with Vitis vinifera [12]. In addition, the “fold change (FC)” value in the test with Vitis vinifera [3] came out at 11; in the test with Vitis vinifera [6], 33; in the test with Vitis vinifera [7], 9; in the test with Vitis vinifera [13], 22; in the test with Vitis vinifera [14], 10; in the test on Vitis vinifera [15] it was 67. Besides, in the test with Vitis vinifera [11], the result was Active.
